Consider 7 compounds from US9682967B2.

Assay [1] concerns the target human sortilin (S-18 cells) (Homo sapiens (Human), UniProt Q99523). Description: Endogenous PGRN endocytosis assay (PGRN ELISA of media). The assay is classed as cell-based. The note with it: for PGRN levels in cell culture media (FIG. 1): PGRN allowed to accumulate 24 hrs, then compounds for further 24 hrs.
Assay [2] deals with human sortilin (HEK 293 / S-18 cells) (Homo sapiens (Human), UniProt Q99523). In words: Cellomics progranulin assay (PGRN binding/endocytosis, staining intensity). The assay is classed as cell-based. The note with it: compounds 30 min, then PGRN 60 min.
human sortilin (HEK 293 / S-18 cells), sequence (Q99523 78-831): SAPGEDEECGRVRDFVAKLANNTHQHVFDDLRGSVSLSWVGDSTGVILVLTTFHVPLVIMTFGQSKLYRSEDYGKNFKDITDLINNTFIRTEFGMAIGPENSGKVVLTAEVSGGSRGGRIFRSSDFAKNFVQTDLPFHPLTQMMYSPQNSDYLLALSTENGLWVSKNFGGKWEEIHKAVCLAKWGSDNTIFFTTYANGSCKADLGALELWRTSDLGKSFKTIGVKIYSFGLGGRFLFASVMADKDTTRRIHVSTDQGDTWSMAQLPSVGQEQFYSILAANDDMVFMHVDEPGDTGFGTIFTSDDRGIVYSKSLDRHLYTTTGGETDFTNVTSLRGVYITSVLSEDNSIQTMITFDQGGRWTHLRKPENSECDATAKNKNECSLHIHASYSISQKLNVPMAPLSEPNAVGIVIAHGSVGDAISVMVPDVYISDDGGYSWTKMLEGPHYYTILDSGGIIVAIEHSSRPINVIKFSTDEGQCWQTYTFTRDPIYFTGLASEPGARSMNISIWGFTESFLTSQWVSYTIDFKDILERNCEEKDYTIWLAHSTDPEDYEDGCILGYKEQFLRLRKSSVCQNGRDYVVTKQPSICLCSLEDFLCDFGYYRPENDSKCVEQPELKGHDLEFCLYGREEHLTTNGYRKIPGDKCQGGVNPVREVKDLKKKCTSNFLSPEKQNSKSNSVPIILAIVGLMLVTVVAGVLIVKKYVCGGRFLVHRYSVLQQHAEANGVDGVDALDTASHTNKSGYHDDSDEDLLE
Experimental: Cellomics Progranulin Assay
Transfected HEK 293 cells (with control or sortilin expression plasmids) or stable HEK293 cells expressing human sortilin (S-18) were used in this assay. Cells are trypsinized and plated in 96 well plates. In the case of transiently transfected cells, they were plated 24 hrs after transfection in 96 well plates. Next day, media was changed completely and test compounds added to cells for 30 min. followed by PGRN for 60 min. At the end of the study (after 1.5 hrs), the cells were fixed and stained for sortilin and progranulin. All stained plates were analyzed by Cellomics Array Scan (Thermo Fischer) and average staining intensity for PGRN and sortilin are calculated per cell in each well.
For assay [3], the target named is mSortilin (Mus musculus (Mouse), UniProt Q6PHU5). Description: mSortilin affinity assay (displacement of 3H-neurotensin, SPA). It is filed as binding.
mSortilin, sequence (Q6PHU5 74-825): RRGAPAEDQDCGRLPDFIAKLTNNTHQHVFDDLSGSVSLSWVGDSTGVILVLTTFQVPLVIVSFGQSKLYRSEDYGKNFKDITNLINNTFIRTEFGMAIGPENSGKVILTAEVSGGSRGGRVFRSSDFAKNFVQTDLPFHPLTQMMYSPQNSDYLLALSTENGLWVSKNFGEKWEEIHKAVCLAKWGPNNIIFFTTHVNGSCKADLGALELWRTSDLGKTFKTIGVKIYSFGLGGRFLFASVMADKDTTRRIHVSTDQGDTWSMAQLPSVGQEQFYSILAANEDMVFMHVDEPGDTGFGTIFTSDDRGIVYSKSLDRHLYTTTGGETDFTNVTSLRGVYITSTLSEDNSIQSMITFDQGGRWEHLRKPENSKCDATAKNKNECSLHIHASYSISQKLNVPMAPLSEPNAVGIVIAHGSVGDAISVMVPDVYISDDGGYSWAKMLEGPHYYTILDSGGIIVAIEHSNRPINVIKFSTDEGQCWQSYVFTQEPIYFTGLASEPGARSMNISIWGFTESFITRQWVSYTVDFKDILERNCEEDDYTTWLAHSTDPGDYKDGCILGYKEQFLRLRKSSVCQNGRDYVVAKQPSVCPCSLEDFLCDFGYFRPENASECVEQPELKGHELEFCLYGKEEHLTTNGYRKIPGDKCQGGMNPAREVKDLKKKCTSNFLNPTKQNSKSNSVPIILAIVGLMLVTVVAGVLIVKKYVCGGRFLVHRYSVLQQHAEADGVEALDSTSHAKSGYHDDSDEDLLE
Experimental: Mouse his-Sortilin was purchased from R&D Systems.
The Sortilin assay was performed in total volume of 40 ul in 50 mM HEPES pH 7.4 assay buffer containing 100 mM NaCl, 2.0 mM CaCl2, 0.1% BSA and 0.1% Tween-20. Varying concentration of compounds where pre-incubated for 30 min at RT with 50 nM of 6his-Sortilin. […] Ni chelate imaging beads (Perkin elmer) was added and the plate was slowly shacked in the dark for 60 min. The imaging beads were allowed minimum 6 hours settling time before the plate was read on a ViewLux with 360 sec exposure time. Dose-response evaluation of compounds was performed with 10 concentrations of drugs (covering 3 decades). IC50 values were calculated by nonlinear regression using the sigmoid concentration-response (variable slope) using Xlfit 4 (IDBS, UK). The results were given as Ki values (nM) derived from computer fitted IC50 values converted to Ki values using the Cheng-Prusoff equation (Ki=IC50/(1+(L/Kd))).
In assay [4] the target is hSortilin (Homo sapiens (Human), UniProt Q99523). Description: hSortilin affinity assay (displacement of 3H-neurotensin, SPA). The assay is classed as binding. The note with it: for IC50: [3H]-Neurotensin 5 nM, 150 nM 6his-Sortilin, read-out: hSortilin NTS Binding IC50; for Ki: from IC50 by Cheng-Prusoff, Kd neurotensin 100 nM.
hSortilin, sequence (Q99523 34-755): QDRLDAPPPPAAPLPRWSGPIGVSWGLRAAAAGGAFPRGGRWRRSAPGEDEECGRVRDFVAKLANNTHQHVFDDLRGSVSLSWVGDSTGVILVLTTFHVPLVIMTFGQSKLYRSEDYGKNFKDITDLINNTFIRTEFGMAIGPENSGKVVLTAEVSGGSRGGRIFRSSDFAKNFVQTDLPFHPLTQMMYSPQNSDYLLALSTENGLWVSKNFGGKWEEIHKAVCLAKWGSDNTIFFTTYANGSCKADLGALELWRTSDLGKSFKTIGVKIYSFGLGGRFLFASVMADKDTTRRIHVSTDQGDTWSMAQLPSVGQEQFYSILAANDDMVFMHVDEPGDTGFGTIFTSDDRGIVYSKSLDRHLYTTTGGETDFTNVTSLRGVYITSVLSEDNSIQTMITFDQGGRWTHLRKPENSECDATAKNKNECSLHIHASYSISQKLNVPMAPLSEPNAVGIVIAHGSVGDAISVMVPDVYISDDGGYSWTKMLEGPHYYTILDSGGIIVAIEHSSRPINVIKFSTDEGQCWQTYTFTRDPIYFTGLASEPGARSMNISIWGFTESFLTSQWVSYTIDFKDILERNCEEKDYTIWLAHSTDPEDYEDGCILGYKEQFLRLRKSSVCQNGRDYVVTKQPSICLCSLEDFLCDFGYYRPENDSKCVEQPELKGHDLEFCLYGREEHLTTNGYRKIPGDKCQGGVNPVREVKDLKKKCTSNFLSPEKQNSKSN

human sortilin (S-18 cells), sequence (Q99523 78-831): as the sequence (Q99523 78-831) above

On to `Cc1cccc(NC(=O)c2ccc(C(F)(F)F)cc2C(=O)O)n1` [Example 1, N-(6-Methyl-pyridin-2-yl)-5-trifluoromethyl-phthalamic acid], for which, in assay [1] (10 uM, media collected on day 3), the “increase in PGRN in cell culture media as compared to control wells” value is 85-100%. In addition, in assay [1], the “PGRN levels in cell culture media (FIG. 1)” value is “increase in PGRN levels”. Further, the “PGRN fluorescence intensity / binding or endocytosis of PGRN to sortilin expressing cells (FIG. 2)” value in assay [2] was “blocks binding or endocytosis of PGRN”. Besides, the IC50 in assay [3] ([3H]-Neurotensin 5 nM, 50 nM 6his-Sortilin, read-out: mSortilin NTS Binding IC50) was 220 nM. In addition, the affinity in assay [3] (from IC50 by Cheng-Prusoff) corresponds to a Ki of 210 nM.

As to `Cc1cccc(NC(=O)c2cc(C(F)(F)F)c(C(F)(F)F)cc2C(=O)O)n1` [Example 47, 2-((6-methylpyridin-2-yl)carbamoyl)-4,5-bis(trifluoromethyl)benzoic acid], in assay [4], the IC50 worked out at 1200 nM and the affinity corresponds to a Ki of 1140 nM.

For the compound `O=C(O)c1cc(C(F)(F)F)c(C(F)(F)F)cc1C(=O)Nc1ccc2c(n1)CCCC2` [Example 48, 2-((5,6,7,8-tetrahydroquinolin-2-yl)carbamoyl)-4,5-bis(trifluoromethyl)benzoic acid], in assay [4], the IC50 was 760 nM and affinity was put at a Ki of 721 nM.

Consider `Cc1ccc(NC(=O)c2cc(C(F)(F)F)c(C(F)(F)F)cc2C(=O)O)nc1C` [Example 49, 2-((5,6-dimethylpyridin-2-yl)carbamoyl)-4,5-bis(trifluoromethyl)benzoic acid], for which, in assay [4], the IC50 came out at 750 nM and the affinity corresponds to a Ki of 734 nM.

As for `Cc1nccc(NC(=O)c2cc(C(F)(F)F)c(C(F)(F)F)cc2C(=O)O)n1` [Example 50, 2-((2-methylpyrimidin-4-yl)carbamoyl)-4,5-bis(trifluoromethyl)benzoic acid], in assay [4], the concentration for half-maximal inhibition (IC50) is 620 nM and affinity was put at a Ki of 599 nM.

On to `Cc1cc(NC(=O)c2ccc(C(F)(F)F)cc2C(=O)O)cc(C)n1` [Example 51, 2-((2,6-dimethylpyridin-4-yl)carbamoyl)-5-(trifluoromethyl)benzoic acid], for which, in assay [4], the half-maximal inhibitory concentration (IC50) stood at 640 nM and the affinity corresponds to a Ki of 614 nM.

Regarding “scrambled neurotensin: scrambled neurotensin, sequence LIYPRNEYELRKP (SEQ ID NO:1); negative control (Scrambled Human Neurotensin) [reference compound]”, the “PGRN levels in cell culture media (FIG. 1)” value in assay [1] was “did not have any effect”. Also, the “PGRN fluorescence intensity / binding or endocytosis of PGRN to sortilin expressing cells (FIG. 2)” value in assay [2] is reported as “significantly increased”.
